The record followed here is the NIST ThermoML archive (doi:10.1016/j.fluid.2005.01.012).

± gives the expanded uncertainty stated by the source.

A short description of this data set: refractive index (Na D-line) (dimensionless). The note with it: 293.1 K; 101.33 kPa; Liquid; Standard Abbe refractometry.
As a reminder, the refractive index is the speed of light in vacuum divided by its phase velocity in the sample. As for `CCCCCCCCCCCCCC` [tetradecane], the refractive index came out at 1.4291 ± 0.0008.

Turning to `CCCc1ccccc1` [propylbenzene], the refractive index is given as 1.4915 ± 0.0008.

As to `CN1CCCC1=O` [N-methylpyrrolidone], the refractive index worked out at 1.4696 ± 0.0008.

Take `CCCCCCCCCCCCCCCCC` [heptadecane]: the refractive index was determined as 1.4362 ± 0.0008.

For `CCCCCCCCCCCC` [dodecane], the refractive index is 1.422 ± 0.0008.
